Active and inactive are the calls of the source. The calls are words filed in the database; no cut-off is given here.
Experiments:
[1] = system: Mus musculus; test: Neurotoxicity in mouse assessed as effect on inspection activity at 1 mg/kg, ip by hole-board test; format: toxicity, organism-based; parameters: dose 1 mg/kg, route intraperitoneal; conditions: in vivo
[2] = system: Mus musculus; test: Nootropic activity against scopolamine-induced amnesia in mouse assessed as increase in latency time to enter dark room at 1 mg/kg, ip administered 20 mins prior to test by passive avoidance test (reference value: 91.7 sec); format: functional; conditions: route intraperitoneal
[3] = system: Mus musculus; test: Neurotoxicity in mouse assessed as effect on gross behavior at 1 mg/kg, ip by rota-rod test; format: toxicity, organism-based; parameters: dose 1 mg/kg, route intraperitoneal; conditions: in vivo
[4] = system: Mus musculus; test: Neurotoxicity in mouse assessed as effect on spontaneous motility at 1 mg/kg, ip by hole-board test; format: toxicity, organism-based; parameters: dose 1 mg/kg, route intraperitoneal; conditions: in vivo
[5] = system: Mus musculus; test: Neurotoxicity in mouse assessed as effect on motor coordination at 1 mg/kg, ip by rotarod test; format: toxicity, organism-based; parameters: dose 1 mg/kg, route intraperitoneal; conditions: in vivo
[6] = system: Mus musculus; test: Nootropic activity against scopolamine-induced amnesia in mouse assessed as increase in latency period to enter dark room up to 10 mg/kg, ip administered 20 mins prior to test by passive avoidance test (reference value: 91.7 sec); format: functional, organism-based; parameters: dose 10 mg/kg
[7] = system: Mus musculus; test: Nootropic activity against scopolamine-induced amnesia in mouse assessed as increase in latency time to enter dark room at 10 mg/kg, ip administered 20 mins prior to test by passive avoidance test (reference value: 91.7 sec); format: functional; conditions: route intraperitoneal
[8] = system: Mus musculus; test: Neurotoxicity in mouse assessed as effect on inspection activity at 10 mg/kg, ip by hole-board test; format: toxicity, organism-based; parameters: dose 10 mg/kg, route intraperitoneal; conditions: in vivo
[9] = system: Mus musculus; test: Neurotoxicity in mouse assessed as effect on gross behaviour at 10 mg/kg, ip by rotarod test; format: toxicity, organism-based; parameters: dose 10 mg/kg, route intraperitoneal; conditions: in vivo
[10] = system: Mus musculus; test: Neurotoxicity in mouse assessed as effect on motor coordination at 10 mg/kg, ip by rotarod test; format: toxicity, organism-based; parameters: dose 10 mg/kg, route intraperitoneal; conditions: in vivo
[11] = system: Mus musculus; test: Neurotoxicity in mouse assessed as effect on spontaneous motility at 10 mg/kg, ip by hole-board test; format: toxicity, organism-based; parameters: dose 10 mg/kg, route intraperitoneal; conditions: in vivo
[12] = system: Mus musculus; test: Neurotoxicity in mouse assessed as effect on spontaneous motility at 0.1 mg/kg, ip by hole-board test; format: toxicity, organism-based; parameters: dose 0.1 mg/kg, route intraperitoneal; conditions: in vivo
[13] = system: Mus musculus; test: Nootropic activity against scopolamine-induced amnesia in mouse assessed as increase in latency time to enter dark room at 0.1 mg/kg, ip administered 20 mins prior to test by passive avoidance test (reference value: 91.7 sec); format: functional; conditions: route intraperitoneal
[14] = system: Mus musculus; test: Neurotoxicity in mouse assessed as effect on gross behavior at 0.1 mg/kg, ip by rota-rod test; format: toxicity, organism-based; parameters: dose 0.1 mg/kg, route intraperitoneal; conditions: in vivo
[15] = system: Mus musculus; test: Neurotoxicity in mouse assessed as effect on motor coordination at 0.1 mg/kg, ip by rotarod test; format: toxicity, organism-based; parameters: dose 0.1 mg/kg, route intraperitoneal; conditions: in vivo
[16] = system: Mus musculus; test: Neurotoxicity in mouse assessed as effect on inspection activity at 0.1 mg/kg, ip by hole-board test; format: toxicity, organism-based; parameters: dose 0.1 mg/kg, route intraperitoneal; conditions: in vivo
[17] = system: Mus musculus; test: Neurotoxicity in mouse assessed as effect on spontaneous motility at 30 mg/kg, ip by hole-board test; format: toxicity, organism-based; parameters: dose 30 mg/kg, route intraperitoneal; conditions: in vivo
[18] = system: Mus musculus; test: Neurotoxicity in mouse assessed as effect on inspection activity at 30 mg/kg, ip by hole-board test; format: toxicity, organism-based; parameters: dose 30 mg/kg, route intraperitoneal; conditions: in vivo
[19] = system: Mus musculus; test: Neurotoxicity in mouse assessed as effect on gross behavior at 30 mg/kg, ip by rota-rod test; format: toxicity, organism-based; parameters: dose 30 mg/kg, route intraperitoneal; conditions: in vivo
[20] = system: Mus musculus; test: Neurotoxicity in mouse assessed as effect on motor coordination at 30 mg/kg, ip by rotarod test; format: toxicity, organism-based; parameters: dose 30 mg/kg, route intraperitoneal; conditions: in vivo
[21] = system: Mus musculus; test: Neurotoxicity in mouse assessed as effect on inspection activity at 0.01 mg/kg, ip by hole-board test; format: toxicity, organism-based; parameters: dose 0.01 mg/kg, route intraperitoneal; conditions: in vivo
[22] = system: Mus musculus; test: Neurotoxicity in mouse assessed as effect on motor coordination at 0.01 mg/kg, ip by rotarod test; format: toxicity, organism-based; parameters: dose 0.01 mg/kg, route intraperitoneal; conditions: in vivo
[23] = system: Mus musculus; test: Neurotoxicity in mouse assessed as effect on gross behavior at 0.01 mg/kg, ip by rota-rod test; format: toxicity, organism-based; parameters: dose 0.01 mg/kg, route intraperitoneal; conditions: in vivo
[24] = system: Mus musculus; test: Nootropic activity against scopolamine-induced amnesia in mouse assessed as increase in latency time to enter dark room at 0.01 mg/kg, ip administered 20 mins prior to test by passive avoidance test (reference value: 91.7 sec); format: functional; conditions: route intraperitoneal
[25] = system: Mus musculus; test: Neurotoxicity in mouse assessed as effect on spontaneous motility at 0.01 mg/kg, ip by hole-board test; format: toxicity, organism-based; parameters: dose 0.01 mg/kg, route intraperitoneal; conditions: in vivo
[26] = system: Mus musculus; test: Neurotoxicity in mouse assessed as effect on inspection activity at 0.001 mg/kg, ip by hole-board test; format: toxicity, organism-based; parameters: dose 0.001 mg/kg, route intraperitoneal; conditions: in vivo
[27] = system: Mus musculus; test: Neurotoxicity in mouse assessed as effect on gross behaviour at 0.001 mg/kg, ip by rotarod test; format: toxicity, organism-based; parameters: dose 0.001 mg/kg, route intraperitoneal; conditions: in vivo
[28] = system: Mus musculus; test: Neurotoxicity in mouse assessed as effect on spontaneous motility at 0.001 mg/kg, ip by hole-board test; format: toxicity, organism-based; parameters: dose 0.001 mg/kg, route intraperitoneal; conditions: in vivo
[29] = system: Mus musculus; test: Neurotoxicity in mouse assessed as effect on motor coordination at 0.001 mg/kg, ip by rotarod test; format: toxicity, organism-based; parameters: dose 0.001 mg/kg, route intraperitoneal; conditions: in vivo
[30] = system: Mus musculus; test: Nootropic activity against scopolamine-induced amnesia in mouse assessed as increase in latency time to enter dark room at 0.001 mg/kg, ip administered 20 mins prior to test by passive avoidance test (reference value: 91.7 sec); format: functional; conditions: route intraperitoneal

`CCC(=O)NC1CCCN(C(=O)c2ccccc2)CC1` (stereo not drawn) was tested, and the Activity [1] was “Non-toxic”, the Time [2] was 62.7 s and the Activity [3] was “Non-toxic”. The Activity [4] was “Non-toxic” and the Activity [5] was “Non-toxic”.
`CC(=O)NC1CCCN(C(=O)c2ccccc2)CC1` (stereo not drawn) was tested, and the Activity [6] was “inactive”.
`CC(=O)NC1CCN(C(=O)c2ccccc2)C1` (stereo not drawn) was tested, and the Time [7] was 70.3 s, the Activity [8] was “Non-toxic” and the Activity [9] was “Non-toxic”. The Activity [10] was “Non-toxic” and the Activity [11] was “Non-toxic”.
In the case of `CC(=O)NC1CCCN(S(=O)(=O)c2ccc(F)cc2)CC1` (stereo not drawn), the Time [2] is reported as 62.7 s and the Activity [6] is reported as “inactive”.
With `CCC(=O)NC1CCCN(S(=O)(=O)c2ccc(F)cc2)CC1` (stereo not drawn) the Time [7] was 46.8 s, the Activity [8] was “Non-toxic” and the Activity [9] was “Non-toxic”. For the same molecule, the Activity [10] was “Non-toxic” and the Activity [11] was “Non-toxic”.
For `CC(=O)NC1CCCN(C(=O)c2ccccc2)CCC1`, the Activity [6] was “inactive”.
For `CCC(=O)NC1CCCN(C(=O)c2ccccc2)CCC1`, the Activity [6] was “inactive”.
With `CCC(=O)N1CCC(NS(=O)(=O)c2ccc(F)cc2)C1` (stereo not drawn) the Activity [6] was “inactive”.
`CCC(=O)NC1CN(C(=O)c2ccccc2)C1` was tested, and the Activity [6] was “inactive”.
`CCC(=O)NC1CCN(S(=O)(=O)c2ccc(F)cc2)C1` (stereo not drawn) was tested, and the Activity [12] was “Non-toxic”, the Time [13] was 48.8 s and the Activity [14] was “Non-toxic”. For the same molecule, the Activity [15] was “Non-toxic” and the Activity [16] was “Non-toxic”.
For `CCC(=O)N[C@@H]1CCN(S(=O)(=O)c2ccc(F)cc2)C1`, the Time [7] was 69.4 s, the Activity [8] was “Non-toxic” and the Activity [9] was “Non-toxic”. The Activity [10] was “Non-toxic” and the Activity [11] was “Non-toxic”.
In the case of `CC(=O)N1CCCC(NC(=O)c2ccccc2)CC1` (stereo not drawn), the Activity [1] is reported as “Non-toxic”, the Time [2] is reported as 70.4 s and the Activity [3] is reported as “Non-toxic”. The Activity [4] was “Non-toxic” and the Activity [5] was “Non-toxic”.
In the case of `CCC(=O)NC1CCN(C(=O)c2ccccc2)C1` (stereo not drawn), the Activity [1] is reported as “Non-toxic”, the Time [2] is reported as 45.4 s and the Activity [3] is reported as “Non-toxic”. The Activity [4] was “Non-toxic” and the Activity [5] was “Non-toxic”.
With `CC(=O)N1CCCC(NS(=O)(=O)c2ccc(F)cc2)CC1` (stereo not drawn) the Activity [1] was “Non-toxic”, the Time [2] was 45.8 s and the Activity [3] was “Non-toxic”. The Activity [4] was “Non-toxic” and the Activity [5] was “Non-toxic”.
In the case of `CC(=O)NC1CCCN(S(=O)(=O)c2ccc(F)cc2)CCC1`, the Activity [1] is reported as “Non-toxic”, the Time [2] is reported as 44.8 s and the Activity [3] is reported as “Non-toxic”. For the same molecule, the Activity [4] was “Non-toxic” and the Activity [5] was “Non-toxic”.
With `CCC(=O)NC1CCCN(S(=O)(=O)c2ccc(F)cc2)CCC1` the Time [7] was 72.2 s, the Activity [8] was “Non-toxic” and the Activity [9] was “Non-toxic”. For the same molecule, the Activity [10] was “Non-toxic” and the Activity [11] was “Non-toxic”.
In the case of `CCC(=O)NC1CN(S(=O)(=O)c2ccc(F)cc2)C1`, the Time [7] is reported as 44.1 s, the Activity [8] is reported as “Non-toxic” and the Activity [9] is reported as “Non-toxic”. The Activity [10] was “Non-toxic” and the Activity [11] was “Non-toxic”.
With `CCC(=O)N1CCCC(NS(=O)(=O)c2ccc(F)cc2)CC1` (stereo not drawn) the Time [7] was 81.4 s.
With `NC(=O)CN1CCCC1=O` [PIRACETAM] the Activity [17] was “Non-toxic”, the Activity [18] was “Non-toxic” and the Activity [19] was “Non-toxic”. The Activity [20] was “Non-toxic”.
With `CC(=O)N1CCC(NC(=O)c2ccccc2)C1` (stereo not drawn) the Activity [1] was “Non-toxic”, the Time [2] was 48.1 s and the Activity [3] was “Non-toxic”. For the same molecule, the Activity [4] was “Non-toxic” and the Activity [5] was “Non-toxic”.
With `CC(=O)N1CCC(NS(=O)(=O)c2ccc(F)cc2)C1` (stereo not drawn) the Activity [6] was “inactive”.
For `CC(=O)NC1CCN(S(=O)(=O)c2ccc(F)cc2)C1` (stereo not drawn), the Activity [1] was “Non-toxic”, the Time [2] was 51 s and the Activity [3] was “Non-toxic”. The Activity [4] was “Non-toxic” and the Activity [5] was “Non-toxic”.
`CCC(=O)N1CCC(NC(=O)c2ccccc2)C1` (stereo not drawn) was tested, and the Activity [6] was “inactive”.
For `CCC(=O)N[C@H]1CCN(S(=O)(=O)c2ccc(F)cc2)C1`, the Activity [1] was “Non-toxic”, the Time [2] was 56.6 s and the Activity [3] was “Non-toxic”. For the same molecule, the Activity [4] was “Non-toxic” and the Activity [5] was “Non-toxic”.
For `CC(=O)NC1CCN(S(=O)(=O)c2ccc(F)cc2)CC1` [SAPUNIFIRAM], the Activity [21] was “Non-toxic”, the Activity [22] was “Non-toxic” and the Activity [23] was “Non-toxic”. The Time [24] was 76.1 s and the Activity [25] was “Non-toxic”.
`CCC(=O)N1CCCC(NC(=O)c2ccccc2)CC1` (stereo not drawn) was tested, and the Activity [1] was “Non-toxic”, the Time [2] was 69.4 s and the Activity [3] was “Non-toxic”. The Activity [4] was “Non-toxic” and the Activity [5] was “Non-toxic”.
For `CCC(=O)N1CCCN(S(=O)(=O)c2ccc(F)cc2)CCC1`, the Activity [6] was “inactive”.
For `CCC(=O)N1CCN(C(=O)c2ccccc2)CC1` [SUNIFIRAM], the Activity [26] was “Non-toxic”, the Activity [27] was “Non-toxic” and the Activity [28] was “Non-toxic”. For the same molecule, the Activity [29] was “Non-toxic” and the Time [30] was 71 s.
With `CCC(=O)N1CCCN(C(=O)c2ccccc2)CCC1` the Activity [6] was “inactive”.
With `CC(=O)N1CCCN(S(=O)(=O)c2ccc(F)cc2)CCC1` the Activity [6] was “inactive”.
`CC(=O)N1CCCN(C(=O)c2ccccc2)CCC1` was tested, and the Activity [6] was “inactive”.

— ChEMBL document CHEMBL1955827, “Influence of ring size on the cognition-enhancing activity of DM235 and MN19, two potent nootropic drugs” (Bioorg Med Chem Lett, 2012)
